How the values were obtained:
[1] = Log D by shake-flask method; assay type: physicochemical; settings: n-octanol/PBS
Protocol: To evaluate the binding affinities of compounds 1–9, competitive radioligand binding assays were conducted using [^3H]-AZ13582963 [4-(1S,2S)-2-(4-cyclobutylpiperazine-1-carbonyl)-cyclopropyl)-N-methyl-[2-^3 H]-benzamide]. […]. […]. Further, ACD Percepta predictions indicated these compounds are likely to cross the blood-brain barrier (BBB), as indicated by a log BB > −1 and a multiparameter optimization (MPO) score >4.0. High selectivity toward H3R over other CNS targets is essential for effective H3R PET imaging. Therefore, off-target screenings of compounds 2, 3, and 4 were conducted against various CNS receptors, G protein-coupled receptors (GPCRs), transporters, and ion channels at 10 μM (Figure S1). […]. Sigma-1 receptors, crucial for ion channel function and associated with learning, memory, and pain, , have shown synergy with H3R antagonists, including PF-03654746 and ABT-239, potentially enhancing in vivo efficacy.
The lipophilicity was measured according to previously reported methods. , In brief, PBS and n-octanol were premixed prior to the experiment. A solution containing 0.2 MBq of [^18F]3 or [^18F]4, PBS (3 mL) and n-octanol (3 mL) were prepared in a vial and vortexed for 5 min. The PBS and n-octanol layers were then separated and transferred into a centrifuge tube, followed centrifugation at 12,000 rpm for 5 min. Then PBS (0.5 mL) and n-octanol (0.05 mL) were weight and measured the radioactivity on a γ counter (PerkinElmer Wizard). The Log D values of [ ^18F]3 and [^18F]4 were calculated using the following formula: LogD=Log[(radioactivityn‐octanol/weightn‐octanol)/(radioactivityPBS/weightPBS)]

H3R = molecular target: T1, H3R (Rattus norvegicus, UniProt Q9QYN8); assay: In vitro autoradiography on rat brain sections; assay type: binding, SD rat
T1 construct: The brains of SD rat were sectioned into 15 μm slices; from tissue; host or cells: SD rat brain sections
T1 sequence (Q9QYN8 whole entry): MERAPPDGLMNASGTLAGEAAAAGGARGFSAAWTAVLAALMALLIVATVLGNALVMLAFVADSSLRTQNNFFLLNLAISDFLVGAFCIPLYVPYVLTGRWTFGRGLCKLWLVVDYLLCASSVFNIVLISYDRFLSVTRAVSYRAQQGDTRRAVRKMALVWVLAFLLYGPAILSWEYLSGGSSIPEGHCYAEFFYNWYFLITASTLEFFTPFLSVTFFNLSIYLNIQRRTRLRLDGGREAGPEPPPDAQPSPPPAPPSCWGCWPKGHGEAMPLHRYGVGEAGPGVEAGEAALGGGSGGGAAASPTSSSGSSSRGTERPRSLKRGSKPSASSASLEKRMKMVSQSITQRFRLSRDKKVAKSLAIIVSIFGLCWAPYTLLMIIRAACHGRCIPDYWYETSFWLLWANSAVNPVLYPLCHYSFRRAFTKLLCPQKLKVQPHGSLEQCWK
Protocol: To validate the target specificity and selectivity, in vitro autoradiography experiments were conducted using [^18F]3 and [^18F]4 on rat brain sections. […] Furthermore, pretreatment with unlabeled compound 3 (10 μM) led to a signal reduction of over 90% in the brain. […] This discrepancy is likely attributable to additional off-target binding of [^18F]3, which is further supported by high uptake in the cerebellum – a region with low H3R expression. […] The high uptake in the cerebellum may be attributed to nonspecific binding to unidentified CNS targets. […] Nonetheless, the results support further in vivo PET evaluation to better understand their binding profiles and evaluate their potential for H3R imaging – particularly in regions with low sigma-1 abundance.
The ARG was measured according to previously reported methods. , The brains of SD rat were sectioned into 15 μm slices and stored in −80 °C. For each experiment, the brain slices allowed them to warm to room temperature and then incubated in Tris-HCl buffer (50 mM, containing 0.1% bovine serum albumin) for 10 min. The slices were incubated with [^18F]3 or [^18F]4 (0.037 MBq/mL) in the presence of either DMSO (baseline study), GSK189254 (10 μM, blocking study), and unlabeled 3 or 4 (10 μM, blocking study) at room temperature for 30 min. Following incubation, the brain slices were washed three times with cold Tris-HCl buffer (50 mM) for 5 min each, and then dipped in water 2 times for 5 s. The brain slices were dried under cold air and exposed to a Phosphor Screen (BAS IP MS2025, Cytiva) for 2 h. The radioactivity and imaging were captured using an Amersham Typhoon 5 (Cytiva) and the data were analyzed using ImageJ software.

sigma-1 receptor = molecular target: T2, sigma-1 receptor (Mus musculus, UniProt O55242); assay: PET imaging in mice with NE-100 or ABT-239 blocking; assay type: in vivo
T2 construct: we conducted additional in vivo PET imaging studies using NE-100; from tissue; host or cells: brain of living mice
T2 sequence (O55242 whole entry): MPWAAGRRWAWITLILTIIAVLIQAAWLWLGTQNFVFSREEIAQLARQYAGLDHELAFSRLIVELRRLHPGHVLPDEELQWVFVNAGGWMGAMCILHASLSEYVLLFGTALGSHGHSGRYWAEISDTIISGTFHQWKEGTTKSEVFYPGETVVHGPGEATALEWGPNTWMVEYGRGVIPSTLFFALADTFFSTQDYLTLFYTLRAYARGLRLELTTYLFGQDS

[2] = tested on: P-glycoprotein (P-gp) and breast cancer resistance protein (BCRP); assay: PET imaging in mice pretreated with elacridar; assay type: in vivo; settings: elacridar 3 mg/kg, 20 min prior to radioligand injection
Protocol: To determine whether [^18F]3 is actively effluxed by BBB transporters such as P-glycoprotein (P-gp) and breast cancer resistance protein (BCRP), we conducted additional PET scans in mice pretreated with elacridar (3 mg/kg, a dual P-gp/BCRP inhibitor) 20 min prior to radioligand injection.
Figure S4. Mice PET imaging studies (0−60 minutes) of [ 18F]3. (A) TACs of [ 18F]3 in the whole-brain under baseline and elacridar-blocking (3 mg/kg) conditions; (B) Area under curve of [ 18F]3 in the whole-brain; All data were referred to as mean ± SD, n = […]
The molar activities of [18F]3 and [18F]4 were determined using calibration curves, which were generated by plotting the concentration of the authentic standard compounds 3 or 4 against their respective flow injection analysis peak area ratios ([…]). Based on these calibration curves, the molar activities of [18F]3 and [18F]4 were calculated and reported as GBq/µmol.
Figure S5. Calibration curves of compounds 3 (A) and 4 (B). The standard curve was generated by plotting the HPLC UV signal area against concentrations of the compounds 3 or 4. Linear regression analysis was performed to determine the correlation between peak area and […]

[3] = In vitro stability in serum, NHPs; assay type: in vitro ADME, nonhuman primates (NHPs); settings: NHP serum, 37 °C, 30, 60 and 90 min
Protocol: (§1) To assess the stability of [^18F]3, in vitro radioactivity analyses were conducted following 30-, 60- and 90 min coincubation of the radioligand in the serum and liver microsomes from mice, nonhuman primates (NHPs), and humans (Figure ).
(§2) Serum from mice, NHPs, and humans were warmed to room temperature, 15 MBq of [^18F]3 was added to 0.4 mL of each species’ serum. The mixtures were incubated at 37 °C and 0.1 mL of mixture was transferred into 0.2 mL cold acetonitrile at 30, 60, and 90 min. The samples were vortexed for 15 s and then centrifuged at 10,000g for 5 min. The supernatant was analyzed using analytical HPLC (Agilent 1100 series HPLC system on Phenomenex Luna C-18 column (4.6 × 150 mm), mobile phase 30% CH3CN/0.1% TFA in water, flow:1 mL/min). For microsomes studies, a mixture of microsomes (0.5 mg/mL), [^18F]3 (15 MBq), 0.35 mL of PBS, 0.05 mL of NADPH regenerating system A, and 0.01 mL of NADPH regenerating system B were incubated at 37 °C. The subsequent steps followed the same procedure as described above.

[4] = In vitro stability in liver microsomes, mice; assay type: in vitro ADME; settings: 90 min
Protocol: as §1, §2

[5] = In vitro stability in liver microsomes, humans; assay type: in vitro ADME; settings: 90 min
Protocol: as §1, §2

logD [1]: 2.82
reduction in radioactivity across brain regions, GSK189254 blocking (H3R; GSK189254 10 μM): 43.6–86.0%
signal reduction, self-blocking with unlabeled compound (H3R; unlabeled 3 or 4 at 10 μM): over 90%
effect of ABT-239 preinjection on brain signal (sigma-1 receptor; ABT-239 (dual H3R and sigma-1 receptor antagonist) 3 mg/kg): near-complete signal blockade
effect of NE-100 blocking on brain uptake (sigma-1 receptor; NE-100 (selective sigma-1 receptor antagonist) 3 mg/kg): partial reduction
change of brain uptake after elacridar pretreatment [2]: did not significantly change
parent compound remaining intact in serum [3]: over 95%
parent fraction in liver microsomes [4]: 78%
parent fraction in liver microsomes [5]: 95%
Structure (SMILES): O=C([C@H]1C[C@@H]1c1ccc([18F])cc1)N1CCN(C2CCCC2)CC1 [[^18F]3]
